In US11998016B2, “Use of Chaetomium globosum strain in controlling fusarium crown rot of wheat” (priority 2020, dated 2024):

System: Fusarium crown rot (FCR) of wheat, Fusarium pseudograminearum G14LY24-2
Experiment: Field effect of seed coating on controlling FCR of wheat (inoculated field disease nurseries)
Type: in vivo
Details: for Average disease rating: grading 0-5
Method: Wheat grains are soaked for 12 h, sterilized for 60 min, allowed to stand for two days, sterilized for 30-60 min, and cooled for later use. Fusarium pseudograminearum G14LY24-2 was selected on a PDA plate. After growing for three days, marginal hyphae were picked to grow on a fresh PDA plate. After three days, the hyphal pellets were plated into a wheat grain polyethylene bag with sterilized wheat grains. The hyphal pellets grew at room temperature for two weeks until the fungi grew all over wheat grains, and stored in a refrigerator at 4° C. after air-drying.
Disease nurseries were constructed in a 1:1 ratio of seed quantity to inoculum volume ratio. The inoculation was located 3-5 cm above the seed. The seeds to be sown and the inoculum were mixed first, and after mixing well, well-mixed sowing materials were sown by a planter.
Selected C. globosum strains were activated on a fresh PDA, and hyphal pellets were picked into 9 cm PDA Petri dishes. After 15 days, perithecia were ground in sterile water using a spreading rod, and ascospore suspension was controlled at about 100 mL, with a concentration of 1.0-2.0×10^7 ascospores/mL; in case of a low concentration, the suspension was centrifuged at 3,000 rpm for 5 min, dewatered, and resuspended. 75 mL of fungal suspension (approximately 1.3×10^7 ascospores/mL) was mixed with 25 mL of 4 wt % carboxymethyl cellulose salt solution into 100 mL of fungal suspension with 1% carboxymethyl cellulose salt (approximately 1.0×10^7 ascospores/mL). 100 mL of 1×10^7 ascospores/mL fungal suspension with 1% carboxymethyl cellulose salt was mixed well with 5 kg of wheat seeds. Chaetomium globosum strain 12XP1-2-3-coated seeds were rinsed and spread on a plate to count spores on the seed surface, which was 5.0-5.3×10^4 ascospores per seed. The wheat cultivar in 2018 was “Bainong 207”, the wheat cultivar in 2019 was “Aikang 58”, the control agent was 30 g/L difenoconazole, and the seeds were dressed in an agent-to-seed ratio of 1:333.
Field sampling method: At the seedling stage, the emergence rate was investigated, and the plant height, tap root length, fresh weight, dry weight, and colonization ability of C. globosum were measured; at the tillering stage, the morbidity was investigated, and the plant height, tap root length, fresh weight, dry weight, tiller number, and colonization ability of C. globosum were measured; the morbidity was investigated at the jointing stage; the white ear rate was investigated at the filling stage. The method was to investigate the number of white heads and total number of ears per 1 m2 plot and calculate the white ear rate of the plot. The diseased stem rate was investigated at the maturing stage; 20 stems were sampled at five points in each plot, a total of 100 stems for each treatment were brought back to the laboratory, and leaf sheaths were removed thoroughly to determine the disease rating.
The grading standard for adult stage was as follows: 0=no disease; 1=browning in the first node; 2=browning in the second node; 3=browning in the third node; 4=browning in the peduncle or white ears at the filling stage; and 5=diseased plant without ear bearing. The yield was determined during harvest.

[1] = “Aikang 58” in Wenxian in 2019, wheat filling stage
[2] = “Bainong 207” in Kaifeng in 2018, wheat filling stage

Structure (SMILES): CC1COC(Cn2cncn2)(c2ccc(Oc3ccc(Cl)cc3)cc2Cl)O1 (stereo not drawn) [Difenoconazole, difenoconazole]
- Disease index [1]: 9.4
- Diseased stem rate % [1]: 26.0%
- Average disease rating [1]: 0.5
- Disease index [2]: 12.9
- Diseased stem rate % [2]: 30.0%
- Average disease rating [2]: 0.6
